According to the NIST ThermoML archive (doi:10.1016/j.jct.2018.04.019):
Values joined by “and” are separate entries in the source; they are usually repeats but may differ in a detail not shown here. Equal values may be shown once.

Conditions: Liquid; for speed of sound: Frequency=5 MHz, Pulse-echo method; for mass density: Vibrating tube method

CCCCCCCCC [nonane]
Conditions | mass density | speed of sound
373.14 K, 360090 kPa | – | 2160.1 m/s
373.14 K, 389860 kPa | – | 2212.9 m/s
373.15 K, 1010 kPa | 654.52 kg/m3 | –
373.15 K, 5050 kPa | 659.99 kg/m3 | –
373.15 K, 10030 kPa | 666.13 kg/m3 | –
373.15 K, 15070 kPa | 671.78 kg/m3 | –
373.15 K, 20030 kPa | 677.04 kg/m3 | –
373.15 K, 25060 kPa | 681.94 kg/m3 | –
373.15 K, 30040 kPa | 686.51 kg/m3 | –
373.15 K, 35060 kPa | 690.83 kg/m3 | –
373.15 K, 40020 kPa | 694.95 kg/m3 | –
373.15 K, 45070 kPa | 698.87 kg/m3 | –
373.15 K, 50070 kPa | 702.65 kg/m3 | –
373.15 K, 55060 kPa | 706.23 kg/m3 | –
373.15 K, 60040 kPa | 709.66 kg/m3 | –
373.15 K, 65030 kPa | 712.95 kg/m3 | –
398.14 K, 1100 kPa | – | 835.44 m/s and 835.46 m/s
398.14 K, 30140 kPa | – | 1079.8 m/s
398.14 K, 60240 kPa | – | 1254.1 m/s
398.14 K, 90220 kPa | – | 1391.9 m/s
398.14 K, 120200 kPa | – | 1508.5 m/s
398.14 K, 150150 kPa | – | 1610.2 m/s
398.14 K, 180170 kPa | – | 1701.7 m/s
398.14 K, 210020 kPa | – | 1784.3 m/s
398.14 K, 240150 kPa | – | 1861.3 m/s
398.14 K, 270210 kPa | – | 1933.1 m/s
398.14 K, 299860 kPa | – | 1999.6 m/s
398.14 K, 330010 kPa | – | 2063.7 m/s
398.14 K, 360010 kPa | – | 2124 m/s
398.14 K, 389950 kPa | – | 2182.2 m/s
398.15 K, 1020 kPa | 633.06 kg/m3 | –
398.15 K, 5020 kPa | 639.53 kg/m3 | –
398.15 K, 5030 kPa | 639.58 kg/m3 | –
398.15 K, 10050 kPa | 646.89 kg/m3 | –
398.15 K, 15070 kPa | 653.53 kg/m3 | –
398.15 K, 20020 kPa | 659.49 kg/m3 | –
398.15 K, 25030 kPa | 665.05 kg/m3 | –
398.15 K, 30050 kPa | 670.22 kg/m3 | –
398.15 K, 35050 kPa | 675.1 kg/m3 | –
398.15 K, 40020 kPa | 679.63 kg/m3 | –
398.15 K, 45070 kPa | 683.97 kg/m3 | –
398.15 K, 50020 kPa | 688.07 kg/m3 | –
398.15 K, 55040 kPa | 692.01 kg/m3 | –
398.15 K, 60030 kPa | 695.72 kg/m3 | –
398.15 K, 65040 kPa | 699.37 kg/m3 | –
423.14 K, 1110 kPa | – | 747.67 m/s
423.14 K, 1120 kPa | – | 747.72 m/s
423.14 K, 29690 kPa | – | 1013.6 m/s
423.14 K, 60210 kPa | – | 1199.1 m/s
423.14 K, 90050 kPa | – | 1341 m/s
423.14 K, 120570 kPa | – | 1462.7 m/s
423.14 K, 150110 kPa | – | 1565.4 m/s
423.14 K, 180160 kPa | – | 1658.8 m/s
423.14 K, 210180 kPa | – | 1744 m/s
423.14 K, 239990 kPa | – | 1822.3 m/s
423.14 K, 270120 kPa | – | 1895.7 m/s
423.14 K, 299980 kPa | – | 1964.4 m/s
423.14 K, 330040 kPa | – | 2029.4 m/s
423.14 K, 360020 kPa | – | 2089.7 m/s
423.14 K, 389720 kPa | – | 2146.1 m/s
423.15 K, 1020 kPa | 610.45 kg/m3 | –
423.15 K, 5030 kPa | 618.47 kg/m3 and 618.42 kg/m3 | –
423.15 K, 10030 kPa | 627.15 kg/m3 | –
423.15 K, 15030 kPa | 634.86 kg/m3 | –
423.15 K, 20040 kPa | 641.8 kg/m3 | –
423.15 K, 25040 kPa | 648.1 kg/m3 | –
423.15 K, 30020 kPa | 653.92 kg/m3 | –
423.15 K, 35050 kPa | 659.35 kg/m3 | –
423.15 K, 40020 kPa | 664.4 kg/m3 | –
423.15 K, 45020 kPa | 669.15 kg/m3 | –
423.15 K, 50040 kPa | 673.7 kg/m3 | –
423.15 K, 55020 kPa | 677.97 kg/m3 | –
423.15 K, 60030 kPa | 682.03 kg/m3 | –
423.15 K, 65040 kPa | 685.95 kg/m3 | –
448.15 K, 1000 kPa | 586.37 kg/m3 | –
448.15 K, 1040 kPa | – | 660.9 m/s
448.15 K, 5020 kPa | 596.41 kg/m3 and 596.46 kg/m3 | –
448.15 K, 10040 kPa | 607.05 kg/m3 | –
448.15 K, 15010 kPa | 616.06 kg/m3 | –
448.15 K, 20010 kPa | 624 kg/m3 | –
448.15 K, 25040 kPa | 631.27 kg/m3 | –
448.15 K, 30030 kPa | 637.78 kg/m3 | –
448.15 K, 30440 kPa | – | 960.29 m/s
448.15 K, 35030 kPa | 643.8 kg/m3 | –
448.15 K, 40010 kPa | 649.38 kg/m3 | –
448.15 K, 45050 kPa | 654.67 kg/m3 | –
448.15 K, 50020 kPa | 659.58 kg/m3 | –
448.15 K, 55040 kPa | 664.24 kg/m3 | –
448.15 K, 60030 kPa | 668.62 kg/m3 | –
448.15 K, 60490 kPa | – | 1150.5 m/s
448.15 K, 65020 kPa | 672.85 kg/m3 | –
448.15 K, 90220 kPa | – | 1296 m/s
448.15 K, 120320 kPa | – | 1418.8 m/s
448.15 K, 150280 kPa | – | 1525 m/s
448.15 K, 180150 kPa | – | 1619.4 m/s
448.15 K, 209900 kPa | – | 1704.9 m/s
448.15 K, 239920 kPa | – | 1784.3 m/s
448.15 K, 270080 kPa | – | 1858.4 m/s
448.15 K, 299830 kPa | – | 1929.8 m/s
448.15 K, 330050 kPa | – | 1995.9 m/s
448.15 K, 359980 kPa | – | 2059.2 m/s
448.15 K, 390310 kPa | – | 2115.1 m/s
473.15 K, 1010 kPa | – | 574.55 m/s
473.15 K, 5010 kPa | 573.14 kg/m3 | –
473.15 K, 10040 kPa | 586.15 kg/m3 | –
473.15 K, 15040 kPa | 596.86 kg/m3 | –
473.15 K, 20020 kPa | 606.05 kg/m3 | –
473.15 K, 25050 kPa | 614.28 kg/m3 | –
473.15 K, 30020 kPa | 621.6 kg/m3 | –
473.15 K, 30430 kPa | – | 906.04 m/s
473.15 K, 35030 kPa | 628.3 kg/m3 | –
473.15 K, 40050 kPa | 634.51 kg/m3 | –
473.15 K, 45050 kPa | 640.25 kg/m3 | –
473.15 K, 50040 kPa | 645.6 kg/m3 | –
473.15 K, 55020 kPa | 650.62 kg/m3 | –
473.15 K, 60010 kPa | 655.39 kg/m3 | –
473.15 K, 60390 kPa | – | 1104.6 m/s
473.15 K, 65010 kPa | 659.92 kg/m3 | –
473.15 K, 90200 kPa | – | 1255.4 m/s
473.15 K, 120100 kPa | – | 1381 m/s
473.15 K, 150230 kPa | – | 1490.6 m/s
473.15 K, 180260 kPa | – | 1587.6 m/s
473.15 K, 210230 kPa | – | 1675.8 m/s
473.15 K, 240070 kPa | – | 1755.4 m/s
473.15 K, 270130 kPa | – | 1830.8 m/s
473.15 K, 300080 kPa | – | 1901.9 m/s
473.15 K, 330030 kPa | – | 1964.8 m/s
473.15 K, 360070 kPa | – | 2026.3 m/s
473.15 K, 390060 kPa | – | 2084 m/s
